Experimental data as given in the NIST ThermoML archive (doi:10.1016/j.jct.2016.06.018).

Assay: mn = molality of the nth substance listed, in mol/kg
Conditions: 101 kPa, Liquid, Vibrating tube method

CCCCCCCCCCCC[N+](C)(C)CCOc1ccccc1.[Br-] [Domiphen bromide] + O
mass density [kg/m3]
Conditions	293.15 K	298.15 K	303.15 K	308.15 K
m1 = 0.04	999.65	998.37	996.97	995.39
m1 = 0.08	1000.98	999.84	998.36	996.78
